Where “and” joins values, the source holds several entries; their conditions need not be identical. Identical values can stand only once. Like-named read-outs stand apart in the source and are kept apart here.
Legend:
UmChlE [1] = molecular target: T1, UmChlE (Mycosarcoma maydis, UniProt A0A060S684, P492L); experiment: biochemical; format: biochemical, Ustilago maydis; conditions: for Relative esterase activity: 1 h, 37 °C, 50 mM Tris pH 7.5
T1 construct: purification of the chlorogenic acid esterase UmChlE from culture supernatant of U. maydis was accomplished by three complementary separation steps; made in house; host or cells: Ustilago maydis itself (native producer), culture supernatant; Q Sepharose FF, preparative IEF, polyamide column
T1 sequence (A0A060S684 22-585, stated change not applied): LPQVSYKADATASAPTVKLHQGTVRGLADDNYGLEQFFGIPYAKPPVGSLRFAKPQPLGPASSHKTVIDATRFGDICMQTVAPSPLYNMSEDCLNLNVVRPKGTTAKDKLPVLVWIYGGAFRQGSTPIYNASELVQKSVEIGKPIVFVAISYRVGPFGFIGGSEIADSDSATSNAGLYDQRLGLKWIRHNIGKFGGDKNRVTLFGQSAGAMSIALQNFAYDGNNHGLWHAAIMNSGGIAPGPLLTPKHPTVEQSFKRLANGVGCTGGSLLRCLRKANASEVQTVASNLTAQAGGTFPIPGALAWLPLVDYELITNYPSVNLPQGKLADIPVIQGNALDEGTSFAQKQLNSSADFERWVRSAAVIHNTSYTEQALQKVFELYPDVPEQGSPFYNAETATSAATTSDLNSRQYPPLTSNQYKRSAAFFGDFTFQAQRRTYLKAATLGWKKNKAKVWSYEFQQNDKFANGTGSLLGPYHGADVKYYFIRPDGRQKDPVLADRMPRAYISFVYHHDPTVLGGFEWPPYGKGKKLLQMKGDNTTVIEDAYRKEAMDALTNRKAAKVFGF
Method: (§1) Chlorogenic acid esterase activity was determined at 37 °C in 50 mM Tris buffer at pH 7.5 using chlorogenic acid and methyl ferulate as standard substrates, unless otherwise stated. The release of the corresponding free acids was analyzed with HPLC-UV. If appropriate, the hydrolysis of other benzoic and cinnamic acid ester derivatives as well as feruloylated saccharides was measured with the same method. After incubation for one hour the reaction was terminated by doubling the reacting volume with acetonitrile. Samples were centrifuged (15 min, 15.000 × g) before injection to the HPLC (Chromolith Performance RP-18e reverse-phase column, 100 × 4.6 mm, Merck, Darmstadt, Germany). […] Substance elution was detected at 232 nm (benzoic and 3-hydroxybenzoic acid), 254 nm (4-hydroxybenzoic and vanillic acid), 275 nm (cinnamic and gallic acid), 306 nm (p-coumaric acid) and 323 nm (ferulic, caffeic, chlorogenic and sinapic acid) using a Shimadzu UV-Vis detector (SPD-10A VP, Shimadzu Deutschland GmbH, Duisburg, Germany). One unit of enzyme activity was defined as the amount of enzyme releasing one µmοl of free acid per minute under the specified conditions. All measurements were performed at least twice.
Enzyme tolerance to different solvents was investigated in the presence of 50 % (v/v) acetone, acetonitrile, diethyl ether, DMF, DMSO, ethanol, isoamyl alcohol, isobutyl alcohol, isopropanol, methanol, n-hexane, n-heptane, tert-butyl methyl ether or toluene, respectively, in 50 mM Tris buffer pH 7.5 containing 0.7 mM substrate. In an additional experiment, 0.84 mM substrate was used. After incubation (60 min, 37 °C, 900 rpm) the mixture was applied for HPLC analysis as described above. […] The effect of high salt concentrations (0.1 - 3 M NaCl) on enzyme activity was investigated, too.
Various metal ions and enzyme inhibitors were examined for their effect on chlorogenic acid esterase activity (Table 2). […] Hg^2+ reacts with thiol groups and can also reduce disulphide bonds (40). […] Table 2 Effect of metal ions, inhibitors and NaCl on UmChIE activity.
Remaining enzyme activity was measured after 1 h incubation with 1mM, or, in a further experiment, 1.95 mM methyl ferulate and different metal ions as well as inhibitors in concentrations listed above (at 37 °C, 50 mM Tris buffer pH 7.5). Numbers in parentheses are the estimates of the standard error. A sample without additive was used for the calculation of relative enzyme activities. ND: activity not detectable.

UmChlE [2] = molecular target: T1, UmChlE; format: biochemical, Ustilago maydis; conditions: 1 mM (or 1.95 mM) substrate, 1 h, 37 °C, 50 mM Tris pH 7.5, ND = activity not detectable; for Relative esterase activity: chlorogenic acid = 100 %, standard error in parentheses
Method: as §1
Substrate specificity of the UmChlE was determined towards different cinnamate and benzoate esters as well as natural substrates, such as F-A, F-AX and F-AXG, with activity assays as described above. Three mM stock solutions of all substrates were prepared in water.
Purified UmChlE was incubated with 1 mM, or, in a further experiment, 1.95 mM of different substrates for 1 h (at 37 °C, 50 mM Tris buffer pH 7.5). Relative enzyme activities were calculated based on the most preferred substance of the UmChIE: chlorogenic acid which was set to 100 %. Numbers in parentheses are the estimates of the standard error.

RsChlE = molecular target: T2, RsChlE (Rhizoctonia solani, UniProt A0A1D0BQV8); experiment: Substrate specificity of purified RsChlE; format: biochemical; conditions: 1 mM (or 1.95 mM) substrate, 1 h, 30 °C, 50 mM Bis-Tris pH 6.0
T2 sequence (A0A1D0BQV8 39-563): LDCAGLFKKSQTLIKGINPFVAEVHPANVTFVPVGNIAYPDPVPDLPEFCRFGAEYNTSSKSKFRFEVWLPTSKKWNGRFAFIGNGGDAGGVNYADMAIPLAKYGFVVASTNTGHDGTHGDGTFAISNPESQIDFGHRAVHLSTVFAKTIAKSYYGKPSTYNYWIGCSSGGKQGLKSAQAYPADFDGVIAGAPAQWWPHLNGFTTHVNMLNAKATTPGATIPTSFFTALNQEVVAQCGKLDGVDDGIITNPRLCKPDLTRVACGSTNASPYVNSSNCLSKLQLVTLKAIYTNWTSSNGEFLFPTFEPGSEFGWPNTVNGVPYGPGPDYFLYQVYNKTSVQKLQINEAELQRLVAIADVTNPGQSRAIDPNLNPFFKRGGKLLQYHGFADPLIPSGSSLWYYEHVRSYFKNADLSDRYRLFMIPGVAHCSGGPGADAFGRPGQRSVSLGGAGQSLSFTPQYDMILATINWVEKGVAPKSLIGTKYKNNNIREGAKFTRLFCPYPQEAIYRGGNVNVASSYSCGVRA
Method: as §1
After purification of the recombinant RsChlE from the culture supernatant of Pichia pastoris with Ni-NTA, the enzyme was biochemically characterized. The experiments were performed like for UmChlE. pH and temperature optimums were analyzed. […] Table 4: Substrate specificity of purified RsChIE.
Purified RsChlE was incubated with 1 mM, or in an alternative experiment, 1.95 mM of different substrates for 1 h (at 30 °C, 50 mM Bis-Tris buffer pH 6.0). […] Numbers in parentheses are the estimates of the standard error.

[3] = 5 mM additive, 1 mM (or 1.95 mM) methyl ferulate, without additive = 100 %, standard error in parentheses, ND = activity not detectable

With `O=S(=O)([O-])[O-].O=S(=O)([O-])[O-].O=S(=O)([O-])[O-].[Al+3].[Al+3]` [Al2(SO4)3] as the compound, how does the Relative esterase activity (UmChlE [1]; [3]) read?
The Relative esterase activity was 53 (0.12) %.

And the Relative esterase activity (UmChlE [1]; 5 mM additive, 1 mM (or 1.95 mM) methyl ferulate, without additive = 100 %, standard error in parentheses, ND = activity not detectable, listed as Al^3+)?
Its Relative esterase activity is 50 - 76%.

For `[Ca+2].[Cl-].[Cl-]` [CaCl2], which Relative esterase activity (UmChlE [1]; [3]) is on record?
Its Relative esterase activity is 103 (2.76) %.

With `[Cl-].[Cl-].[Co+2]` [CoCl2] as the compound, how does the Relative esterase activity (UmChlE [1]; [3]) read?
The Relative esterase activity was 67 (0.11) %.

What about the Relative esterase activity (UmChlE [1]; 5 mM additive, 1 mM (or 1.95 mM) methyl ferulate, without additive = 100 %, standard error in parentheses, ND = activity not detectable, listed as Co^2+) of the same compound?
The Relative esterase activity was 50 - 76%.

Which Relative esterase activity (UmChlE [1]; [3]) does the source give for `O=[N+]([O-])[O-].O=[N+]([O-])[O-].O=[N+]([O-])[O-].[Cr+3]` [Cr(NO3)3] here?
Its Relative esterase activity is 69 (3.54) %.

And the Relative esterase activity (UmChlE [1]; 5 mM additive, 1 mM (or 1.95 mM) methyl ferulate, without additive = 100 %, standard error in parentheses, ND = activity not detectable, listed as Cr^3+)?
The Relative esterase activity was 50 - 76%.

With `[Cl-].[Cs+]` [CsCl] as the compound, how does the Relative esterase activity (UmChlE [1]; [3]) read?
Its Relative esterase activity is 105 (1.21) %.

For `O=[N+]([O-])[O-].O=[N+]([O-])[O-].[Cu+2]` [Cu(NO3)2], which Relative esterase activity (UmChlE [1]; [3]) is on record?
Its Relative esterase activity is 96 (0.53) %.

Which Specific esterase activity (UmChlE [2]) does the source give for `COc1cc(/C=C/C(=O)OC[C@@H]2OC(O)[C@H](O)[C@H]2O)ccc1O` (stereo partly drawn) [F-A, 5-O-trans-feruloyl-L-arabinofuranose] here?
Its Specific esterase activity is 2.0 U mg^-1 and 2.06 U mg^-1.

And the Specific activity (RsChlE)?
Its Specific activity is 4.48 U/mg.

`COc1cc(/C=C/C(=O)OC[C@@H]2OC(O)[C@H](O[C@@H]3OC[C@@H](O)[C@H](O)[C@H]3O[C@@H]3O[C@@H](CO)[C@@H](O)[C@@H](O)[C@@H]3O)[C@H]2O)ccc1O` (stereo partly drawn) [F-AXG, α-L-galactopyranosyl-(1→2)-β-D-xylopyranosyl-(1→2)-5-O-trans-feruloyl-L-arabinofuranose] was tested. Which Specific esterase activity (UmChlE [2]) did it give?
Its Specific esterase activity is 0.9 U mg^-1 and 0.92 U mg^-1.

What about the Specific activity (RsChlE) of the same compound?
Its Specific activity is 3.66 U/mg.

With `[Cl][Fe]([Cl])[Cl]` [FeCl3] as the compound, how does the Relative esterase activity (UmChlE [1]; [3]) read?
Its Relative esterase activity is 66 (0.65) %.

How did the Relative esterase activity (UmChlE [1]; [3]) turn out when `O=S(=O)([O-])[O-].[Fe+2]` [FeSO4] was run?
Its Relative esterase activity is 102 (0.50) %.

With `CC(=O)[O-].CC(=O)[O-].[Hg+2]` [HgAc2] as the compound, how does the Relative esterase activity (UmChlE [1]; [3]) read?
The Relative esterase activity was “complete loss of enzyme activity”.

`[Cl-].[K+]` [KCI] was tested. Which Relative esterase activity (UmChlE [1]; [3]) did it give?
The Relative esterase activity was 108 (0.57) %.

How did the Relative esterase activity (UmChlE [1]; [3]) turn out when `[Cl-].[Li+]` [LiCI] was run?
The Relative esterase activity was 106 (1.39) %.

For `[Cl-].[Cl-].[Mg+2]` [MgCl2], which Relative esterase activity (UmChlE [1]; [3]) is on record?
The Relative esterase activity was 106 (0. 53) %.

How did the Relative esterase activity (UmChlE [1]; [3]) turn out when `O=S(=O)([O-])[O-].[Mn+2]` [MnSO4] was run?
The Relative esterase activity was 90 (0.09) %.

And the Relative esterase activity (UmChlE [1]; 5 mM additive, 1 mM (or 1.95 mM) methyl ferulate, without additive = 100 %, standard error in parentheses, ND = activity not detectable, listed as Mn^2+)?
Its Relative esterase activity is 90%.

`[Cl-].[Na+]` [NaCl] was tested. Which Relative esterase activity (UmChlE [1]; 100 mM additive, methyl ferulate) did it give?
The Relative esterase activity was 105 (0.02) %.

What about the Relative esterase activity (UmChlE [1]; 500 mM additive, methyl ferulate) of the same compound?
The Relative esterase activity was 121 (0.01) %.

What about the Relative esterase activity (UmChlE [1]; 1000 mM additive, methyl ferulate) of the same compound?
Its Relative esterase activity is 125 (0.02) %.

What about the Relative esterase activity (UmChlE [1]; 2000 mM additive, methyl ferulate) of the same compound?
The Relative esterase activity was 142 (0.06) %.

And the Relative esterase activity (UmChlE [1]; 3000 mM (3 M) additive, methyl ferulate)?
The Relative esterase activity was 150% and 150 (0.04) %.

With `O=S(=O)([O-])[O-].[Ni+2]` [NiSO4] as the compound, how does the Relative esterase activity (UmChlE [1]; [3]) read?
Its Relative esterase activity is 108 (0.87) %.

`CCCCCCCCCCCCOS(=O)(=O)O` [SDS] was tested. Which inhibition at 5000 µM (UmChlE [1]; read-out: enzyme activity was inhibited) did it give?
The inhibition at 5000 µM was 41%.

How did the Relative esterase activity (UmChlE [1]; [3]) turn out when `O=[N+]([O-])[O-].O=[N+]([O-])[O-].[Sr+2]` [SrNO3] was run?
Its Relative esterase activity is 104 (0,18) %.

What does the source list for `O=S(=O)([O-])[O-].[Zn+2]` [ZnSO4]?
Relative esterase activity (UmChlE [1]; [3]): 76 (1.26) %; Relative esterase activity (UmChlE [1]; 5 mM additive, 1 mM (or 1.95 mM) methyl ferulate, without additive = 100 %, standard error in parentheses, ND = activity not detectable, listed as Zn^2+): 50 - 76%

With `CCOC(=O)C=Cc1ccccc1` [ethyl cinnamate] as the compound, how does the Specific activity (RsChlE) read?
The Specific activity was 0.91 U/mg.

For `CCOC(=O)/C=C/c1ccc(O)c(OC)c1` [ethyl ferulate], which Specific esterase activity (UmChlE [2]) is on record?
Its Specific esterase activity is 0.78 U mg^-1.

And the Specific activity (RsChlE)?
The Specific activity was 3.60 U/mg.

For `COC(=O)/C=C/c1ccc(O)c(O)c1` [methyl caffeate], which Specific esterase activity (UmChlE [2]) is on record?
Its Specific esterase activity is 0.49 U mg^-1.

What about the Specific activity (RsChlE) of the same compound?
Its Specific activity is 4.61 U/mg.

For `COC(=O)C=Cc1ccccc1` [methyl cinnamate], which Specific activity (RsChlE) is on record?
Its Specific activity is 2.10 U/mg.

`COC(=O)/C=C/c1cc(OC)c(O)c(OC)c1` [methyl sinapate] was tested. Which Relative esterase activity (UmChlE [2]) did it give?
The Relative esterase activity was “no”.

What about the Relative esterase activity (UmChlE [2]; listed as MSA) of the same compound?
The Relative esterase activity was “total loss of activity”.

From patent EP3539977B1, “ENZYMES WITH CHLOROGENIC ACID ESTERASE ACTIVITY AND FERULOYL ESTERASE ACTIVITY” (SternEnzym GmbH & Co. KG, priority 2014, dated 2016)
